Laboratory results from patent US9296723B2, “NAMPT inhibitors” (AbbVie Inc., priority 2012, dated 2016).
pIC50: −log10 of the molar value.

Columns and labels:
NAMPT = NAMPT (Homo sapiens, UniProt P43490); assay: Time-Resolved Fluorescence Resonance Energy Transfer (TR-FRET) Binding Assay of NAMPT; details: 6.8 nM NAMPT, 200 nM probe, equilibrated 3 hours, no substrates
Experimental: Determination of the utility of compounds having Formula (I) as binders to and inhibitors of NAMPT was performed using Time-Resolved Fluorescence Resonance Energy Transfer (TR-FRET) binding assays.
Time-Resolved Fluorescence Resonance Energy Transfer (TR-FRET) Binding Assay of NAMPT
Six L were transferred to 384-well low-volume plates ([…] #3673). To this, 12 L of a 1.5× solution containing enzyme, probe and antibody were added. […] Reactions were equilibrated at room temperature for 3 hours prior to reading on an Envision multi-label plate reader (Perkin Elmer; Ex=337 nm, Em=520 and 495 nm). Time-resolved FRET ratios (Em520/Em495) were normalized to controls, plotted as a function of compound concentration and fit with the four-parameter logistic equation to determine IC50s.

PC3 cells = assay: NAMPT Cell Proliferation Assay (Cell Titer Glo); type: cell-based; details: Homo sapiens, PC-3, 120 h, incubated 5 days, cell viability
Experimental: NAMPT Cell Proliferation Assay
PC3 cells were seeded in 96-well black plates (Corning #3904) at 500 cells/well in 90 µl of RPMI media containing 10% heat-inactivated FBS and incubated overnight at 37° C. and 5% CO2 to allow cells to attach to wells. The following day, test compounds were serially diluted in neat DMSO to 1000× final concentrations prior to dilution with RPMI media to 10× and 1% DMSO. Ten L of the 10× compounds were then transferred to wells containing cells to produce a dose response of 10-fold dilutions from […]. Cells were incubated for 5 days at 37° C. and 5% CO2, then cell viability was measured using Cell Titer Glo reagent (Promega #G7571). Percent inhibition values were calculated and fitted to a sigmoidal dose response curves using Assay Explorer software to determine IC50s.

Chain of NAMPT (P43490 whole entry): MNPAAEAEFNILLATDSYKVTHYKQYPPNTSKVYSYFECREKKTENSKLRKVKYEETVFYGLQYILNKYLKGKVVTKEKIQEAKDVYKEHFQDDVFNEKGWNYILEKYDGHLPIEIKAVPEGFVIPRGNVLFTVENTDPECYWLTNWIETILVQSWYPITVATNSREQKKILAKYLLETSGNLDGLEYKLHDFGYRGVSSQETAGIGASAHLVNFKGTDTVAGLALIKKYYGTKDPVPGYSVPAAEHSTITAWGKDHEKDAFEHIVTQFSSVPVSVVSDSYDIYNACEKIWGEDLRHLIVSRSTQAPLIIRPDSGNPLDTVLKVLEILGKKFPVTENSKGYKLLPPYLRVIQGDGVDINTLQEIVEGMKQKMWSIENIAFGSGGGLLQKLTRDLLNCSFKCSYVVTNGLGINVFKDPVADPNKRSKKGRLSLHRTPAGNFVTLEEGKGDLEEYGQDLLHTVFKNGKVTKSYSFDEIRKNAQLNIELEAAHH

Row | pIC50 (NAMPT) | pIC50 (PC3 cells) | Structure (SMILES)
1 | 7.76 | 8.10 | O=C(CC(F)(F)F)N1CCC(c2ccc(NC(=O)N3CC(c4cccnc4)C3)cc2)CC1 [Example 58, 3-(pyridin-3-yl)-N-{4-[1-(3,3,3-trifluoropropanoyl)piperidin-4-yl]phenyl}azetidine-1-carboxamide]
2 | 7.23 | 7.66 | O=C(CC(F)(F)F)N1CC[C@@H](Oc2ccc(NC(=O)N3CC(c4cccnc4)C3)cc2)C1 [Example 84, 3-(pyridin-3-yl)-N-(4-{[(3R)-1-(3,3,3-trifluoropropanoyl)pyrrolidin-3-yl]oxy}phenyl)azetidine-1-carboxamide]
3 | – | 6.13 | CC(C)(C)C(=O)N1CCC(Cc2ccc(NC(=O)N3CC(c4cccnn4)C3)cc2)CC1 [Example 350, N-(4-{[1-(2,2-dimethylpropanoyl)piperidin-4-yl]methyl}phenyl)-3-(pyridazin-3-yl)azetidine-1-carboxamide]
4 | 7.83 | 8.06 | CC(C)C(C)C(=O)N1CC(Oc2ccc(NC(=O)N3CC(c4cccnc4)C3)cc2)C1 (stereo not drawn) [Example 123, N-(4-{[1-(2,3-dimethylbutanoyl)azetidin-3-yl]oxy}phenyl)-3-(pyridin-3-yl)azetidine-1-carboxamide]
5 | 7.35 | 7.21 | O=C(CC1CC1)N1CCC(c2ccc(NC(=O)N3CC(c4cccnc4)C3)cc2)C1 (stereo not drawn) [Example 69, N-{4-[1-(cyclopropylacetyl)pyrrolidin-3-yl]phenyl}-3-(pyridin-3-yl)azetidine-1-carboxamide]
6 | 7.07 | 7.09 | O=C(Nc1ccc(C2CCN(C(=O)[C@@H]3CCCO3)C2)cc1)N1CC(c2cccnc2)C1 (stereo partly drawn) [Example 66, 3-(pyridin-3-yl)-N-(4-{1-[(2S)-tetrahydrofuran-2-ylcarbonyl]pyrrolidin-3-yl}phenyl)azetidine-1-carboxamide]
7 | – | 5.05 | CC(=O)N1CCC(c2ccc(NC(=O)N3CC(c4cccnn4)C3)cc2)CC1 [Example 341, N-[4-(1-acetylpiperidin-4-yl)phenyl]-3-(pyridazin-3-yl)azetidine-1-carboxamide]
8 | 7.18 | 6.90 | O=C(CCN1CCOCC1)N1CCC(c2ccc(NC(=O)N3CC(c4cccnc4)C3)cc2)C1 (stereo not drawn) [Example 281, N-(4-{1-[3-(morpholin-4-yl)propanoyl]pyrrolidin-3-yl}phenyl)-3-(pyridin-3-yl)azetidine-1-carboxamide]
9 | 6.64 | 6.74 | CC(C)C(=O)N1CC[C@H](Oc2ccc(NC(=O)N3CC(c4cccnc4)C3)cc2)C1 [Example 89, N-(4-{[(3S)-1-(2-methylpropanoyl)pyrrolidin-3-yl]oxy}phenyl)-3-(pyridin-3-yl)azetidine-1-carboxamide]
10 | – | 5.81 | O=C(CC1CC1)N1CCC(c2ccc(NC(=O)N3CC(c4cccnn4)C3)cc2)CC1 [Example 347, N-{4-[1-(cyclopropylacetyl)piperidin-4-yl]phenyl}-3-(pyridazin-3-yl)azetidine-1-carboxamide]
11 | – | 6.65 | O=C(Nc1ccc(C2CCN(C(=O)c3ccccc3)CC2)cc1)N1CC(c2cccnn2)C1 [Example 336, N-[4-(1-benzoylpiperidin-4-yl)phenyl]-3-(pyridazin-3-yl)azetidine-1-carboxamide]
12 | – | 6.23 | Cc1ccccc1C(=O)N1CCC(c2ccc(NC(=O)N3CC(c4cccnn4)C3)cc2)CC1 [Example 338, N-{4-[1-(2-methylbenzoyl)piperidin-4-yl]phenyl}-3-(pyridazin-3-yl)azetidine-1-carboxamide]
13 | – | 7.13 | O=C(Nc1ccc(C2CCN(C(=O)[C@H]3CCOC3)CC2)cc1)N1CC(c2cccnc2)C1 [Example 159, 3-(pyridin-3-yl)-N-(4-{1-[(3S)-tetrahydrofuran-3-ylcarbonyl]piperidin-4-yl}phenyl)azetidine-1-carboxamide]
14 | – | 7.26 | O=C(Nc1ccc(C2CCN(C(=O)c3ccccc3F)CC2)cc1)N1CC(c2cccnn2)C1 [Example 337, N-{4-[1-(2-fluorobenzoyl)piperidin-4-yl]phenyl}-3-(pyridazin-3-yl)azetidine-1-carboxamide]
15 | – | 6.11 | O=C(Nc1ccc(CC2CCN(C(=O)c3ccccc3F)CC2)cc1)N1CC(c2cccnn2)C1 [Example 349, N-(4-{[1-(2-fluorobenzoyl)piperidin-4-yl]methyl}phenyl)-3-(pyridazin-3-yl)azetidine-1-carboxamide]
16 | – | 6.10 | CC[C@H](C)C(=O)N1CCC(Cc2ccc(NC(=O)N3CC(c4cccnn4)C3)cc2)CC1 [Example 356, N-[4-({1-[(2S)-2-methylbutanoyl]piperidin-4-yl}methyl)phenyl]-3-(pyridazin-3-yl)azetidine-1-carboxamide]

Row | pIC50 (NAMPT) | pIC50 (PC3 cells) | Structure (SMILES)
17 | – | 6.41 | CC(C)(C)CC(=O)N1CCC(c2ccc(NC(=O)N3CC(c4cccnn4)C3)cc2)CC1 [Example 342, N-{4-[1-(3,3-dimethylbutanoyl)piperidin-4-yl]phenyl}-3-(pyridazin-3-yl)azetidine-1-carboxamide]
18 | – | 6.07 | CC1(C(=O)N2CCC(c3ccc(NC(=O)N4CC(c5cccnn5)C4)cc3)CC2)CC1 [Example 346, N-(4-{1-[(1-methylcyclopropyl)carbonyl]piperidin-4-yl}phenyl)-3-(pyridazin-3-yl)azetidine-1-carboxamide]
19 | – | 7.86 | O=C(Nc1ccc(C2CCN(C(=O)C3CCOC3)CC2)cc1)N1CC(c2cccnc2)C1 (stereo not drawn) [Example 53, 3-(pyridin-3-yl)-N-{4-[1-(tetrahydrofuran-3-ylcarbonyl)piperidin-4-yl]phenyl}azetidine-1-carboxamide]
20 | – | 5.61 | O=C(Nc1ccc(C2CCN(C(=O)C3CC3)CC2)cc1)N1CC(c2cccnn2)C1 [Example 340, N-{4-[1-(cyclopropylcarbonyl)piperidin-4-yl]phenyl}-3-(pyridazin-3-yl)azetidine-1-carboxamide]
21 | – | 6.18 | CC(C)(C)C(=O)N1CCC(c2ccc(NC(=O)N3CC(c4cccnn4)C3)cc2)CC1 [Example 339, N-{4-[1-(2,2-dimethylpropanoyl)piperidin-4-yl]phenyl}-3-(pyridazin-3-yl)azetidine-1-carboxamide]
22 | – | 6.00 | CC(C)C(=O)N1CCC(Cc2ccc(NC(=O)N3CC(c4cccnn4)C3)cc2)CC1 [Example 354, N-(4-{[1-(2-methylpropanoyl)piperidin-4-yl]methyl}phenyl)-3-(pyridazin-3-yl)azetidine-1-carboxamide]
23 | – | 6.15 | CC1(C(=O)N2CCC(Cc3ccc(NC(=O)N4CC(c5cccnn5)C4)cc3)CC2)CC1 [Example 357, N-[4-({1-[(1-methylcyclopropyl)carbonyl]piperidin-4-yl}methyl)phenyl]-3-(pyridazin-3-yl)azetidine-1-carboxamide]
24 | – | 6.19 | O=C(Nc1ccc(C2CCN(C(=O)[C@H]3CCOC3)CC2)cc1)N1CC(c2cnccc2Cl)C1 [Example 160, 3-(4-chloropyridin-3-yl)-N-(4-{1-[(3S)-tetrahydrofuran-3-ylcarbonyl]piperidin-4-yl}phenyl)azetidine-1-carboxamide]
25 | – | 5.95 | O=C(CC(F)(F)F)N1CCC(c2ccc(NC(=O)N3CC(c4cccnn4)C3)cc2)CC1 [Example 345, 3-(pyridazin-3-yl)-N-{4-[1-(3,3,3-trifluoropropanoyl)piperidin-4-yl]phenyl}azetidine-1-carboxamide]
26 | – | 5.12 | O=C(CCC(F)(F)F)N1CCC(c2ccc(NC(=O)N3CC(c4cccnn4)C3)cc2)CC1 [Example 344, 3-(pyridazin-3-yl)-N-{4-[1-(4,4,4-trifluorobutanoyl)piperidin-4-yl]phenyl}azetidine-1-carboxamide]
27 | – | 6.22 | CCC(CC)C(=O)N1CCC(Cc2ccc(NC(=O)N3CC(c4cccnn4)C3)cc2)CC1 [Example 352, N-(4-{[1-(2-ethylbutanoyl)piperidin-4-yl]methyl}phenyl)-3-(pyridazin-3-yl)azetidine-1-carboxamide]
28 | – | 6.08 | O=C(Nc1ccc(C2CCN(C(=O)C3CCC3)CC2)cc1)N1CC(c2cccnn2)C1 [Example 343, N-{4-[1-(cyclobutylcarbonyl)piperidin-4-yl]phenyl}-3-(pyridazin-3-yl)azetidine-1-carboxamide]
29 | 6.08 | – | O=C(Nc1ccc(C2CN(CC3CCOC3)C2)cc1)N1CC(c2cccnc2)C1 (stereo not drawn) [Example 256, 3-(pyridin-3-yl)-N-{4-[1-(tetrahydrofuran-3-ylmethyl)azetidin-3-yl]phenyl}azetidine-1-carboxamide]
30 | – | 5.14 | CC(=O)N1CCC(Cc2ccc(NC(=O)N3CC(c4cccnn4)C3)cc2)CC1 [Example 355, N-{4-[(1-acetylpiperidin-4-yl)methyl]phenyl}-3-(pyridazin-3-yl)azetidine-1-carboxamide]
31 | – | 6.10 | O=C(Nc1ccc(CC2CCN(C(=O)c3ccccc3)CC2)cc1)N1CC(c2cccnn2)C1 [Example 348, N-{4-[(1-benzoylpiperidin-4-yl)methyl]phenyl}-3-(pyridazin-3-yl)azetidine-1-carboxamide]
32 | – | 6.18 | CC(C)(C)CC(=O)N1CCC(Cc2ccc(NC(=O)N3CC(c4cccnn4)C3)cc2)CC1 [Example 351, N-(4-{[1-(3,3-dimethylbutanoyl)piperidin-4-yl]methyl}phenyl)-3-(pyridazin-3-yl)azetidine-1-carboxamide]
